According to US20050209248A1, “Plymorphic forms of phenyl oxazolidinone derivatives” (priority 2002, published 2005):
In brackets after ≈: the same amount, converted by molar mass. Where two headings read alike, the source gives them in different places.

Tests used:
[1] = tested on: Porphyromonas asaccharolytica; assay: Agar dilution MIC; assay type: cell-based; conditions: Porphyromonas asaccharolytica isolate
[2] = tested on: anaerobic bacteria; assay: NCCLS agar dilution MIC, anaerobic bacteria (summary); assay type: cell-based; conditions: anaerobes, Wilkins Chalgren Agar, 48 hour anaerobic incubation; for MIC Range: in µg/mL
[3] = tested on: Fusobacterium necrogenes; assay: Agar dilution MIC; assay type: cell-based; conditions: Fusobacterium necrogenes isolate
[4] = tested on: Prevotella bivia; assay: Agar dilution MIC; assay type: cell-based; conditions: Prevotella bivia isolate
[5] = tested on: Porphyromonas gingivalis; assay: Agar dilution MIC; assay type: cell-based; conditions: Porphyromonas gingivalis isolate
[6] = tested on: MRSE 879 adherent bacteria; assay: Sintered glass adherent bacteria model; assay type: cell-based; conditions: MRSE 879, sintered glass adherent
From the text: (§1) Inhibition of slime production • 2. Activity against glass-adherent bacteria.
(§2) The change in MIC in broth and on sintered glass adherent bacteria is presented in Graph E. [drawing]

[7] = tested on: MRSE 879; assay: Broth MIC; assay type: cell-based; conditions: for MIC: Staphylococcus epidermidis, read-out: broth MIC
From the text: as §2

[8] = tested on: Mycobacterium tuberculosis; assay: Agar dilution method for M. tuberculosis (Middlebrook 7H10); assay type: cell-based; conditions: 504 h; for MIC90 / MIC: 21 days at 37° C.; for MIC: read-out: G.M. (MIC)
[9] = tested on: MRSA 1029/99 and MRSE 879/247; assay: Inhibition of biofilm (slime) production, safranin staining; assay type: cell-based; conditions: trypticase soy broth with 2% glucose, overnight 37° C., Graphs A to D
Protocol: as §1
To study the effect of polymorphic ‘Form A’ on the inhibition of biofilm production, the following study was carried out as set forth in Blake et al. J. Clinical Microbiol. 2001; 39:544-550; and Polonio et al. Chemother. 2001; 45:3262-3266. […] Bacterial suspensions (in triplicate) were exposed a doubling dilution of antibiotics and incubated overnight at 37° C. with constant shaking (100 rpm). The next day, after aspirating the medium, the biofilm was stained with safranin (0.1%) for 1 hour at room temperature, washed with distilled water, tapped dry and stain-extracted into 200 μl of 0.2M NaoH and the OD measured at 544 nm.

[10] = tested on: Mycobacterium avium intracellulare; assay: Agar dilution method (Middlebrook 7H10); assay type: cell-based; conditions: 504 h, 21 days at 37° C.; for MIC: read-out: G.M. (MIC)
[11] = in vivo; cited from earlier work
[12] = tested on: Clostridium perfringens; assay type: cell-based

Compound | MIC [1] [µg/mL] | Geometric Mean (MIC) [2] [µg/mL] | MIC50 [2] [µg/mL] | MIC90 [2] [µg/mL] | MIC Range [2] | MIC [3] [µg/mL] | MIC [4] [µg/mL] | MIC [5] [µg/mL] | MIC50 [8] [µg/mL] | MIC90 [8] [µg/mL] | MIC [8] [µg/mL] | MIC50 [10] [µg/mL] | MIC90 [10] [µg/mL] | MIC [10] [µg/mL] | further results
CCC[C@@H]1C[C@@H](C(=O)N[C@@H]([C@H]2O[C@H](SC)[C@H](O)[C@@H](O)[C@H]2O)[C@H](C)Cl)N(C)C1 [Clindamycin] | ≤ 0.016 | 0.208 | 0.125 (≈ 0.294 µM) | 8 (≈ 18.8 µM) | 0.008-64 | 0.03 (≈ 0.0706 µM) | > 32 | ≤ 0.016 | – | – | – | – | – | – | –
Synercid | ≤ 0.125 | 1.61 | 1 | 16 | 0.062-16 | 0.25 | 2 | 0.25 | – | – | – | – | – | – | concentration which would kill adherent bacteria [6]: 2 µg/mL; broth MIC ([7]; MRSE 879, broth): 0.5 µg/mL
CC1(C)S[C@@H]2[C@H](NC(=O)[C@H](N)c3ccc(O)cc3)C(=O)N2[C@H]1C(=O)O [Amox] | – | 1.37 | 1 (≈ 2.74 µM) | 256 (≈ 701 µM) | 0.062-256 | 0.5 (≈ 1.37 µM) | – | – | – | – | – | – | – | – | –
CC(=O)NC[C@H]1CN(c2ccc(N3CCN(Cc4ccc([N+](=O)[O-])o4)CC3)c(F)c2)C(=O)O1.Cl [Polymorphic ‘Form A’] | ≤ 0.008 | 0.037 | 0.032 | 0.25 | 0.004-1 | ≤ 0.008 | 0.125 | ≤ 0.008 | 4 | 64 | 5.44 | 8 | 32 | 8.52 | Inhibition of Biofilm formation [9]: occurs at a lower concentration; concentration which would kill adherent bacteria [6]: 2 µg/mL; MIC ([7]; MRSE 879, broth): 0.5 µg/mL
CC(=O)NC[C@H]1CN(c2ccc(N3CCOCC3)c(F)c2)C(=O)O1 [Linezolid] | 1 (≈ 2.96 µM) | 1.13 | 1 (≈ 2.96 µM) | 4 (≈ 11.9 µM) | 0.25-4 | 0.5 (≈ 1.48 µM) | 1 (≈ 2.96 µM) | 1 (≈ 2.96 µM) | 8 (≈ 23.7 µM) | 64 (≈ 190 µM) | 8 (≈ 23.7 µM) | 16 (≈ 47.4 µM) | 64 (≈ 190 µM) | 20.6 (≈ 61 µM) | Cmax [11]: 12000 to 16000 ng/mL; concentration which would kill adherent bacteria [6]: 32 µg/mL; MIC ([7]; MRSE 879, broth): 2 µg/mL (≈ 5.93 µM)
COc1c(N2CCNC(C)C2)c(F)cc2c(=O)c(C(=O)O)cn(C3CC3)c12 (stereo not shown) [Gatifloxacin] | 0.25 (≈ 0.666 µM) | 0.659 | 0.5 (≈ 1.33 µM) | 2 (≈ 5.33 µM) | 0.06-32 | 0.5 (≈ 1.33 µM) | 2 (≈ 5.33 µM) | 0.06 (≈ 0.16 µM) | – | – | – | – | – | – | –
C[C@@H](O)[C@H]1C(=O)N2C(C(=O)O)=C(SCCN=CN)C[C@H]12 [Imipenem] | 0.03 (≈ 0.1 µM) | 0.084 | 0.064 (≈ 0.214 µM) | 1 (≈ 3.34 µM) | 0.008-4 | 0.25 (≈ 0.835 µM) | 0.03 (≈ 0.1 µM) | ≤ 0.016 | – | – | – | – | – | – | –
Cc1ncc([N+](=O)[O-])n1CCO [Metronidazole] | – | 0.48 | 0.5 (≈ 2.92 µM) | 2 (≈ 11.7 µM) | 0.062-32 | 0.25 (≈ 1.46 µM) | 1 (≈ 5.84 µM) | – | – | – | – | – | – | – | –
CO[C@H]1/C=C/O[C@@]2(C)Oc3c(C)c(O)c4c(O)c(c(/C=N/N5CCN(C)CC5)c(O)c4c3C2=O)NC(=O)/C(C)=C\C=C\[C@H](C)[C@H](O)[C@@H](C)[C@@H](O)[C@@H](C)[C@H](OC(C)=O)[C@@H]1C [Rifampicin] | – | – | – | – | – | – | – | – | 64 (≈ 77.8 µM) | 64 (≈ 77.8 µM) | 6.35 (≈ 7.72 µM) | 1 (≈ 1.22 µM) | 32 (≈ 38.9 µM) | 2 (≈ 2.43 µM) | –
Teicoplanin | 0.125 | 2.04 | 2 | 32 | 0.03-32 | > 16 | 1 | ≤ 0.06 | – | – | – | – | – | – | –
Amox + clav | ≤ 0.125 | 0.423 | 0.25 | 8 | 0.062-32 | 0.5 | ≤ 0.125 | ≤ 0.125 | – | – | – | – | – | – | –
CC[C@H]1OC(=O)[C@H](C)[C@@H](O[C@H]2C[C@@](C)(OC)[C@@H](O)[C@H](C)O2)[C@H](C)[C@@H](O[C@@H]2O[C@H](C)C[C@H](N(C)C)[C@H]2O)[C@](C)(OC)C[C@@H](C)C(=O)[C@H](C)[C@@H](O)[C@]1(C)O [Clarithromycin] | – | – | – | – | – | – | – | – | 16 (≈ 21.4 µM) | 32 (≈ 42.8 µM) | 12.7 (≈ 17 µM) | 1 (≈ 1.34 µM) | 4 (≈ 5.35 µM) | 1.55 (≈ 2.08 µM) | –
CN[C@H](CC(C)C)C(=O)N[C@H]1C(=O)N[C@@H](CC(N)=O)C(=O)N[C@H]2C(=O)N[C@H]3C(=O)N[C@H](C(=O)N[C@H](C(=O)O)c4cc(O)cc(O)c4-c4cc3ccc4O)[C@H](O)c3ccc(c(Cl)c3)Oc3cc2cc(c3O[C@@H]2O[C@H](CO)[C@@H](O)[C@H](O)[C@H]2O[C@H]2C[C@](C)(N)[C@H](O)[C@H](C)O2)Oc2ccc(cc2Cl)[C@H]1O [Vancomycin] | 2 (≈ 1.38 µM) | 9.31 | 32 (≈ 22.1 µM) | 32 (≈ 22.1 µM) | 0.5-32 | > 16 | > 16 | 8 (≈ 5.52 µM) | – | – | – | – | – | – | concentration which would kill adherent bacteria [6]: 8 µg/mL; MIC [12]: 0.5 µg/mL (≈ 0.345 µM); MIC ([7]; MRSE): 1 µg/mL (≈ 0.69 µM)
C[C@@H]1CN(c2c(F)c(N)c3c(=O)c(C(=O)O)cn(C4CC4)c3c2F)C[C@H](C)N1 [Sparfloxacin] | – | – | – | – | – | – | – | – | 1 (≈ 2.55 µM) | 2 (≈ 5.1 µM) | 0.53 (≈ 1.35 µM) | 4 (≈ 10.2 µM) | 8 (≈ 20.4 µM) | 3.53 (≈ 8.99 µM) | –
COc1c(N2C[C@@H]3CCCN[C@@H]3C2)c(F)cc2c(=O)c(C(=O)O)cn(C3CC3)c12 [Moxifloxacin] | 0.5 (≈ 1.25 µM) | – | – | – | – | 1 (≈ 2.49 µM) | – | 0.03 (≈ 0.0747 µM) | – | – | – | – | – | – | –
NNC(=O)c1ccncc1 [Isoniazid] | – | – | – | – | – | – | – | – | 8 (≈ 58.3 µM) | 64 (≈ 467 µM) | 3.17 (≈ 23.1 µM) | 32 (≈ 233 µM) | 64 (≈ 467 µM) | 18.1 (≈ 132 µM) | –
